Source: ChEMBL document CHEMBL2417433, “Synthesis and biological evaluations of a monomethylauristatin E glucuronide prodrug for selective cancer chemotherapy” (Eur J Med Chem, 2013)
Activity calls are given as the source filed them. No cut-off for these calls is given here. Non-standard residues stand in square brackets, D forms with d. Residues, ends and D or L forms follow the SMILES beside them. *: point of attachment. Dolaproine = CO[C@@H]([C@@H]1CCCN1)[C@@H](C)C(=O)O; Dil = CC[C@H](C)[C@H](NC)[C@@H](CC(=O)O)OC; X1 = C[C@@H](N*)[C@@H](O)c1ccccc1; NMeV = CN[C@H](C(=O)O)C(C)C

Assays:
[1] = tested on: A549; assay: Antiproliferative activity against human A549 cells after 4 days by XTT assay; assay type: functional, cell-based; details: A549, 96 h
[2] = tested on: MDA-MB-231; assay: Antiproliferative activity against human MDA-MB-231 cells after 4 days by XTT assay; assay type: functional, cell-based; details: MDA-MB-231, 96 h
[3] = tested on: Cancer cell lines; assay: Cytotoxicity against human non-small cell lung cancer cells at 0.5 to 1 nM after 4 days by XTT assay; assay type: functional, cell-based
[4] = tested on: KB; assay: Antiproliferative activity against human KB cells after 4 days by XTT assay; assay type: functional, cell-based; details: 96 h
[5] = tested on: Lewis lung carcinoma cell line; assay: Antitumor activity against mouse LLC cells allografted in C57/BL6 mouse assessed as reduction in tumor weight at 0.1 mg/kg, iv administered on day 7, 11 and 14 post transplantation measured on day 20 relative to control; assay type: functional
[6] = tested on: A549; assay: Antiproliferative activity against human A549 cells after 4 days by XTT assay in presence of Escherichia coli beta-glucuronidase; assay type: functional, cell-based; details: A549, 96 h
[7] = tested on: KB; assay: Ratio of IC50 for human KB cells to IC50 for human KB cells in presence of Escherichia coli beta-glucuronidase; assay type: functional
[8] = Prodrug conversion in phosphate buffer at pH 7 assessed as MMAE and 4-hydroxy-3-nitrobenzyl alcohol formation after 40 mins by HPLC method in presence of Escherichia coli beta-glucuronidase; assay type: physicochemical; details: pH 7, 40 min
[9] = tested on: MDA-MB-231; assay: Ratio of IC50 for human MDA-MB-231 cells to IC50 for human MDA-MB-231 cells in presence of Escherichia coli beta-glucuronidase; assay type: functional
[10] = tested on: Serum; assay: Stability in bovine serum at 0.5 mg after 48 hrs by HPLC method; assay type: ADME, cell-free, Bos taurus; details: cattle
[11] = tested on: Lewis lung carcinoma cell line; assay: Antitumor activity against mouse LLC cells allografted in C57/BL6 mouse assessed as reduction in tumor weight at 0.5 mg/kg, iv administered on day 7, 11 and 14 post transplantation measured on day 20 relative to control; assay type: functional
[12] = Cytotoxicity against human non-small cell lung cancer cells at 1 nM after 4 days by XTT assay in presence of Escherichia coli beta-glucuronidase; assay type: functional, Cancer cell lines
[13] = tested on: Mus musculus; assay: Toxicity in mouse LLC cells allografted C57/BL6 mouse model assessed as change in body weight at 0.5 mg/kg, iv administered on day 7, 11 and 14 post transplantation measured on day 20; assay type: organism-based; design: dose 0.5 mg/kg, route intravenous; details: in vivo
[14] = tested on: A549; assay: Ratio of IC50 for human A549 cells to IC50 for human A549 cells in presence of Escherichia coli beta-glucuronidase; assay type: functional
[15] = tested on: KB; assay: Antiproliferative activity against human KB cells after 4 days by XTT assay in presence of Escherichia coli beta-glucuronidase; assay type: functional, cell-based; details: 96 h
[16] = tested on: MDA-MB-231; assay: Antiproliferative activity against human MDA-MB-231 cells after 4 days by XTT assay in presence of Escherichia coli beta-glucuronidase; assay type: functional, cell-based; details: MDA-MB-231, 96 h

IC50 [6] | Drug metabolism [8] | Stability [10] | IC50 [15] | IC50 [16] | SMILES | IC50 [1] | IC50 [2] | Activity [3] | IC50 [4] | fold change (FC) [5] | Ratio IC50 [7] | Ratio IC50 [9] | fold change (FC) [11] | Activity [12] | Activity [13] | Ratio IC50 [14]
 |  |  |  |  | CC[C@H](C)[C@@H]([C@@H](CC(=O)N1CCC[C@H]1[C@H](OC)[C@@H](C)C(=O)N[C@H](C)[C@@H](O)c1ccccc1)OC)N(C)C(=O)[C@@H](NC(=O)[C@@H](NC)C(C)C)C(C)C (H-[NMeV]V[Dil][Dolaproine]-X1) | 590 pM | 250 pM | Active | 190 pM | 1.5 |  |  |  |  |  | 
520 pM | Active | Stable | 160 pM | 220 pM | CC[C@H](C)[C@@H]([C@@H](CC(=O)N1CCC[C@H]1[C@H](OC)[C@@H](C)C(=O)N[C@H](C)[C@@H](O)c1ccccc1)OC)N(C)C(=O)[C@@H](NC(=O)[C@H](C(C)C)N(C)C(=O)OCc1ccc(O[C@@H]2O[C@H](C(=O)O)[C@@H](O)[C@H](O)[C@H]2O)c([N+](=O)[O-])c1)C(C)C | 23700 pM | 20900 pM | inactive | 20800 pM |  | 40 | 40 | 1.5 | 75% | Non-toxic | 40
